Tests used:
[1] = MTT cytotoxicity assay, WI-38 normal cells; type: cell-based; conditions: human, WI-38 lung fibroblasts (normal cells); for CC50 at 72 h: WI-38, 72 h incubation, MTT; for viability at 72 h: WI-38, 1 × 10^–4 M, mean ± SD (n = 3), read-out: Cell viability
Excerpt: (§1) The cytotoxicity of the test compounds was studied using the MTT assay against a number of cell lines: CT-26 murine colon carcinoma, 4T1 murine mammary carcinoma, MDA-MB-231 human breast adenocarcinoma, COLO201 human colorectal adenocarcinoma, HepG2 human hepatocellular carcinoma, A549 human non-small-cell lung carcinoma, SK-BR-3 human breast adenocarcinoma, SNU-1 human gastric carcinoma, Jurkat human acute T-lymphoblastic leukemia, and WI-38 human lung fibroblasts (normal cells). Doxorubicin (Dox) was used as a reference drug. Cells were incubated with test compounds for 72 h.
(§2) Cells were seeded in flat-bottomed 96-well plates at 10,000 cells per well (for A549, SNU-1, WI-38, CT-26, MDA-MB-231, 4T1, and HepG2 cells) or 20,000 cells per well (for SK-BR-3, Jurkat, and COLO201 cells) and cultivated in complete culture mediums (for composition of each medium, see the Supplementary Materials, Table S1) in a CO2 incubator at 37 °C. At the first stage of this study, the test compounds dissolved in DMSO were added to the wells with cells at final concentrations from 1 × 10^–4 to 1 × 10^–10 mol/L (A549, SK-BR-3, SNU-1, Jurkat, and WI-38) or 1 × 10^–3 to 1 × 10^–8 mol/L (CT-26, MDA-MB-231, 4T1, COLO201, and HepG2); DMSO concentration in the wells was finally 1%. A complete cultural medium and DMSO were added to the control wells at the same concentration as in the experimental wells; 0.1% Triton X-100 solution (10 µL) was added to the corresponding wells as a non-specific positive control. After adding the test compounds, the cells were incubated for 72 h in an atmosphere containing 5% CO2. After that, the nutrient medium was removed from each well (in the case of SK-BR-3, Jurkat, and COLO201, plates were pre-centrifuged at 1500 rpm for 6 min). A solution of the commercial anticancer agent Doxorubicin (Dox, Sigma-Aldrich, St. Louis, MO, USA) in DMSO was used as a reference drug. Then, 150 µL of a complete medium with the MTT reagent (PanEco, Moscow, Russia) at a concentration of 0.5 mg/mL was added and incubated for 2 h. Formazan crystals were dissolved in DMSO (200 µL) and the absorbance in the wells was measured at 540 nm and a reference wavelength of 650 nm (Sunrise, Tecan, Groding, Austria). Experiments were performed in three parallel runs. Cell viability after incubation in the presence of test compounds was calculated in relation to cell viability in the control wells according to the Formula (1):Cell viability (%) = (Aexp/Ac) × 100,(1) where Aexp is the optical density of solutions in the wells containing test compounds; Ac is the optical density of solutions in control wells without test compounds. For detailed information on cell viability of various cell lines, see the Supplementary Materials, Figures S21–S26.
(§3) At the second stage of this study, in order to more accurately calculate the CC50 (the half maximal inhibitory concentration), the cytotoxic effect of test compounds was evaluated at concentrations close to CC50 found at the first stage. The study of the cytotoxic activity of each substance towards the cells of each line was carried out in triplicate; the mean value was used to calculate CC50. The CC50 values were determined by non-linear regression analysis using Graph-Pad Prism7.

[2] = MTT cytotoxicity assay, CT-26; type: cell-based, murine; conditions: mouse (CT-26) and human (WI-38); CC50 of WI-38 divided by CC50 of CT-26; read-out: SCI (selective cytotoxicity index)
Excerpt: as §1, §2, §3

[3] = tested on: CT-26 murine colon carcinoma; assay: MTT cytotoxicity assay, CT-26; type: cell-based; conditions: Mus musculus, CT26; for viability at 100 µM: CT-26, 1 × 10^–4 M, mean ± SD (n = 3), read-out: Cell viability; for CC50: CT-26, 72 h incubation, MTT, n = 3
Excerpt: as §1, §2, §3

[4] = MTT cytotoxicity assay, 4T1; type: cell-based, murine; conditions: mouse (4T1) and human (WI-38); CC50 of WI-38 divided by CC50 of 4T1; read-out: SCI (selective cytotoxicity index)
Excerpt: as §1, §2, §3

[5] = tested on: 4T1 murine mammary carcinoma; assay: MTT cytotoxicity assay, 4T1; type: cell-based; conditions: Mus musculus; for viability at 100 µM: 4T1, 1 × 10^–4 M, mean ± SD (n = 3), read-out: Cell viability; for CC50: 4T1, 72 h incubation, MTT, n = 3
Excerpt: as §1, §2, §3

[6] = MTT cytotoxicity assay, MDA-MB-231; type: cell-based, human; conditions: human; CC50 of WI-38 divided by CC50 of MDA-MB-231; read-out: SCI (selective cytotoxicity index)
Excerpt: as §1, §2, §3

[7] = tested on: MDA-MB-231 human breast adenocarcinoma; assay: MTT cytotoxicity assay, MDA-MB-231; type: cell-based; conditions: Homo sapiens; for viability at 100 µM: MDA-MB-231, 1 × 10^–4 M, mean ± SD (n = 3), read-out: Cell viability; for CC50: MDA-MB-231, 72 h incubation, MTT, n = 3
Excerpt: as §1, §2, §3

[8] = MTT cytotoxicity assay, COLO201; type: cell-based, human; conditions: human; CC50 of WI-38 divided by CC50 of COLO201; read-out: SCI (selective cytotoxicity index)
Excerpt: as §1, §2, §3

[9] = tested on: COLO201 human colorectal adenocarcinoma; assay: MTT cytotoxicity assay, COLO201; type: cell-based; conditions: Homo sapiens, COLO 201; for viability at 100 µM: COLO201, 1 × 10^–4 M, mean ± SD (n = 3), read-out: Cell viability; for CC50: COLO201, 72 h incubation, MTT, n = 3
Excerpt: as §1, §2, §3

[10] = MTT cytotoxicity assay, SK-BR-3; type: cell-based, human; conditions: human, read-out: SCI (selective cytotoxicity index)
Excerpt: as §1, §2, §3

[11] = tested on: SK-BR-3 human breast adenocarcinoma; assay: MTT cytotoxicity assay, SK-BR-3; type: cell-based; conditions: Homo sapiens; for CC50: SK-BR-3, 72 h, SK-BR-3, 72 h incubation, MTT; for viability at 100 µM: SK-BR-3, 1 × 10^–4 M, mean ± SD (n = 3), read-out: Cell viability
Excerpt: as §1, §2, §3

[12] = MTT cytotoxicity assay, SNU-1; type: cell-based, human; conditions: human, read-out: SCI (selective cytotoxicity index)
Excerpt: as §1, §2, §3

[13] = tested on: SNU-1 human gastric carcinoma; assay: MTT cytotoxicity assay, SNU-1; type: cell-based; conditions: Homo sapiens; for CC50: SNU1, 72 h, SNU-1, 72 h incubation, MTT; for viability at 100 µM: SNU1, SNU-1, 1 × 10^–4 M, mean ± SD (n = 3), read-out: Cell viability
Excerpt: as §1, §2, §3

[14] = MTT cytotoxicity assay, Jurkat; type: cell-based, human; conditions: human, read-out: SCI (selective cytotoxicity index)
Excerpt: as §1, §2, §3

[15] = tested on: Jurkat human acute T-lymphoblastic leukemia; assay: MTT cytotoxicity assay, Jurkat; type: cell-based; conditions: Homo sapiens, Jurkat; for CC50: 72 h, 72 h incubation, MTT; for viability at 100 µM: 1 × 10^–4 M, mean ± SD (n = 3), read-out: Cell viability
Excerpt: as §1, §2, §3

[16] = CC50 of WI-38 divided by CC50 of SK-BR-3 (Table 1)
[17] = CC50 of WI-38 divided by CC50 of SNU-1 (Table 1)
[18] = CC50 of WI-38 divided by CC50 of Jurkat (Table 1)

| Structure (SMILES) | CC50 at 72 h ([1]; n = 3) [µM] | viability at 72 h [1] [%] | selectivity ratio at 72 h [2] | viability at 100 µM [3] [%] | CC50 [3] [µM] | selectivity ratio at 72 h [4] | viability at 100 µM [5] [%] | CC50 [5] [µM] | selectivity ratio at 72 h [6] | viability at 100 µM [7] [%] | CC50 [7] [µM] | selectivity ratio at 72 h [8] | viability at 100 µM [9] [%] | CC50 [9] [µM] | selectivity ratio at 72 h [10, 16] | CC50 ([11]; n = 3 (Table 1)) [µM] | viability at 100 µM [11] [%] | selectivity ratio at 72 h [12, 17] | CC50 ([13]; n = 3 (Table 1)) [µM] | viability at 100 µM [13] [%] | further results |
| --- | --- | --- | --- | --- | --- | --- | --- | --- | --- | --- | --- | --- | --- | --- | --- | --- | --- | --- | --- | --- | --- |
| CC1COc2c(ccc(F)c2F)N1C(=O)CCCCCCCNc1ncnc2[nH]cnc12 (centres unmarked) [Compound 1c] | 50 | 21 ± 3 | 2.6 | 2 ± 1 | 19 | 2.2 | 2 ± 2 | 23 | 1.2 | 5 ± 5 | 44 | 73 | 2 ± 1 | 0.68 | 0.67 | 75 | 8 | 7.1 | 7 | 6 ± 2 | selectivity ratio at 72 h [14, 18]: 5.9; CC50 ([15]; n = 3 (Table 1)): 8.5 µM; viability at 100 µM [15]: 8 ± 2% |
| CC1COc2c(ccc(F)c2F)N1C(=O)CCCCCCCCCCNc1ncnc2[nH]cnc12 (centres unmarked) [Compound 1d] | 21 | 21 ± 7 | 1.1 | 2 ± 1 | 19 | 0.91 | 2 ± 1 | 23 | 0.48 | 4 ± 2 | 44 | 31 | 1 ± 1 | 0.68 | 0.28 | 75 | 8 ± 2 | 3 | 7 | 5 ± 1 | CC50 at 72 h ([1]; n = 3 (Table 3)): 21 µM; selectivity ratio at 72 h ([10]; CC50 of WI-38 divided by CC50 of SK-BR-3 (Table 3)): 0.75; CC50 ([11]; n = 3 (Table 3)): 28 µM; selectivity ratio at 72 h ([12]; CC50 of WI-38 divided by CC50 of SNU-1 (Table 3)): 10; CC50 ([13]; n = 3 (Table 3)): 2 µM; selectivity ratio at 72 h [14, 18]: 2.5; selectivity ratio at 72 h ([14]; CC50 of WI-38 divided by CC50 of Jurkat (Table 3)): 2.1; CC50 ([15]; n = 3 (Table 1)): 8.5 µM; CC50 ([15]; n = 3 (Table 3)): 10 µM; viability at 100 µM [15]: 10 ± 4% |
